Results: patent US20230129485A1, “SYSTEM AND METHOD FOR DETERMINING MATERIAL PROPERTIES OF MOLECULAR SYSTEMS FROM AN AB-INITIO PARAMETERIZED FORCE-FIELD” (InterX, Inc., priority 2021, published 2023)
Where two headings read alike, the source gives them in different places.

Columns and labels:
[1] = Free energy of hydration by COSMO implicit solvent model (MolPro ver. 2012); conditions: absolute error vs Exp (hydration)
Method in brief: (§1)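 Hydration energies come from continuum solvent models. Those for COSMO were computed with MolPro. SMD and PCM results were received, and the SMD, PCM and COSMO-RS sets each cover just the molecules in common with the QM-parameterized force-field calculations.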

[2] = Free energy of hydration by COSMO-RS
Method in brief: as §1

[3] = Bulk solvent properties (density, heat of vaporization, self-solvation) predicted with the QM-parameterized force field model (AFF MD / PIMD)
From the text: Particle-Mesh Ewald (PME) algorithm was used to compute the electrostatic interactions. A 32×32×32 grid mesh and 5th power spline interpolation order can be used to compute the inverse PME sum. 9 Å cutoffs were used to compute the direct PME sum as well as the exchange and dispersion interactions. Bulk corrections were applied to account for distance cut-off of dispersion interactions. Solvation free energies were computed by decoupling the interactions between the solute and the solvent molecules. Electrostatic, exchange-repulsion and dispersion interactions were switched off simultaneously using a lambda-dependent scaling (a scaling factor power=2 was used) and a soft-coring algorithm (maximal soft-coring radius=1.5 Å, soft-coring radius scaling factor power=1). 15 lambda points unequally spaced (X=0, 0.05, 0.1, 0.2, 0.3, 0.4, 0.5, 0.6, 0.7, 0.75, 0.8, 0.85, 0.9, 0.95, 1.0) were used to decouple the solute-solvent intermolecular interactions.
In some simulations of the QM-parameterized force field molecular simulation process, energy minimization (10,000 steps) using the steepest descent algorithm was initially performed on all the simulation systems. This was followed by a 50 ps equilibration and 1 ns production runs in the isothermal-isobaric ensemble (NPT). […] Pressure was maintained at 1 atm using a MTTK barostat (relaxation time=5 ps). […]

[4] = experimental, cited from earlier work
[5] = experimental; cited from earlier work
[6] = implicit solvent model, values received; cited from earlier work
[7] = Free energy of hydration by Solvation Model Dielectric (SMD) implicit solvent model; conditions: absolute error vs Exp (hydration)
Method in brief: as §1

[8] = CHEX/H2O partition coefficient (log D) predicted with the QM-parameterized force field model (ARROW FF)
Method in brief: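 Cyclohexane/water partition coefficients were predicted by molecular simulation with a QM-parameterized force field, with bonded force constants and equilibrium values fitted to MP2/aug-cc-pVTZ energies. Solutes carried neutral functional groups, and results from four independent groups were averaged.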

[9] = implicit solvent model, values received; cited from earlier work; remark: listed apart in the source
[10] = Free energy of hydration predicted with the QM-parameterized force field model (ARROW FF), classical MD and PIMD simulation in a water box; conditions: for Arrow PIMD8 Error: absolute error vs Exp (hydration); for Arrow error: Table 5, error of Arrow PIMD8 hydration free energy vs experiment
Method in brief: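 Classical and PIMD runs (MTS integrator, MTTK barostat at 1 atm) followed minimization and 50 ps equilibration, with 1 ns NPT production per window. Fifteen unequally spaced lambda windows removed all solute-solvent interactions simultaneously in a 32 Å water box. Hydration free energy computed by Bennett acceptance ratio and thermodynamic integration.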

[11] = Free energy of hydration by Polarizable Continuum Model (PCM); conditions: absolute error vs Exp (hydration)
Method in brief: as §1

[12] = CHEX/H2O partition coefficient, experimental, cited from earlier work; for Exp (log D): Table 3; for logD Exp (logD): Table 4
[13] = experimental, cited from earlier work; for Exp (hydration): Table 5
[14] = Free energy of hydration by Free Energy Machine Learning Model (FML); conditions: absolute error vs Exp (hydration)
From the text: Machine learning models can be used for free energy determination.

[15] = Table 5; free energy of hydration, AMOEBA prediction taken from literature; cited from earlier work
[16] = Free energy of hydration predicted by polarizable AMOEBA force field, from literature; conditions: Table 5; error of AMOEBA hydration free energy vs experiment
[17] = Free energy of solvation in cyclohexane predicted with the QM-parameterized force field model (ARROW FF), MD and PIMD; conditions: Table 4; for CHEX Arrow MD Error: error of MD cyclohexane solvation free energy vs experiment; for CHEX Arrow PIMD4 Error: error of PIMD4 cyclohexane solvation free energy vs experiment
Method in brief: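 Solute–cyclohexane interactions decoupled over 15 λ points with soft-core scaling, in MD and path-integral simulations under NPT at 1 atm using PME electrostatics and 9 Å cutoffs. Each window had 50 ps equilibration and 1 ns production; free energies from BAR and TI.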

[18] = Free energy of hydration predicted by General Amber Force Field (GAFF), from literature; conditions: Table 5; error of GAFF hydration free energy vs experiment
[19] = Table 5; free energy of hydration, GAFF prediction taken from literature; cited from earlier work
[20] = Table 3, free energy of solvation in cyclohexane
[21] = Table 3, absolute error of MD hydration free energy vs experiment
[22] = Table 3, absolute error of PIMD8 hydration free energy vs experiment
[23] = Table 3, free energy of hydration
[24] = Table 4, solvation free energy in cyclohexane
[25] = Table 4, error of MD hydration free energy vs experiment
[26] = Table 4, error of PIMD8 hydration free energy vs experiment
[27] = Table 4, neutral amino-acid analogues

Structure (SMILES) | COSMO/Molpro Error [1] | COSMO-RS error [2] | CHEX Exp (solvation) [4, 20] | PCM free energy of hydration [6] | SMD Error [7] | log D Arrow MD Error [8] | log D Arrow PIMD Error [8] | SMD free energy of hydration [9] | water Arrow MD Error [10, 21] | water Arrow PIMD8 Error [10, 22] | Arrow PIMD8 Error [10] | PCM Error [11] | Exp (log D) [12] | water Exp (hydration) [13, 23] | AMOEBA [15] | AMOEBA error [16] | GAFF error [18] | Arrow error [10] | GAFF [19] | Exp (hydration) ([13]; free energy of hydration) | further results
C1CCCCC1 [Cyclohexane] | 1.71 kcal/mol | 0.10 kcal/mol | -4.42 kcal/mol | -0.10 kcal/mol | 0.17 kcal/mol | 0.89 | 0.36 | 1.40 kcal/mol | 1.03 kcal/mol | 0.10 kcal/mol | 0.10 kcal/mol | 1.33 kcal/mol | 4.14 | 1.23 kcal/mol | – | – | – | – | – | – | agreement of bulk energetics ([3]; within chemical accuracy): ≤ 0.5 kcal/mol; Density [5]: 0.790 g/cc; Hvap [5]: 7.91 kcal/mol; self-solvation [5]: -4.42 kcal/mol; Hydration [13]: 1.20 kcal/mol
C [Methane] | 2.35 kcal/mol | 0.20 kcal/mol | 0.14 kcal/mol | -0.10 kcal/mol | 0.24 kcal/mol | 0.25 | 0.09 | 2.20 kcal/mol | 0.32 kcal/mol | 0.09 kcal/mol | 0.09 kcal/mol | 2.06 kcal/mol | 1.33 | 1.96 kcal/mol | 1.73 kcal/mol | 0.23 kcal/mol | 0.24 kcal/mol | 0.09 kcal/mol | 2.20 kcal/mol | 1.96 kcal/mol | FML error [14]: 1.59 kcal/mol; CHEX Arrow MD Error [17]: 0.01 kcal/mol; CHEX Arrow PIMD4 Error [17]: 0.04 kcal/mol; CHEX Exp (solvation) [4, 24]: 0.14 kcal/mol; logD Arrow MD Error [8]: 0.25; logD Arrow PIMD Error [8]: 0.09; water Arrow MD Error [10, 25]: 0.32 kcal/mol; water Arrow PIMD8 Error [10, 26]: 0.09 kcal/mol; logD Exp (logD) [12]: 1.33; water Exp (hydration) [13, 27]: 1.96 kcal/mol
CCC [Propane] | 2.43 kcal/mol | 0.05 kcal/mol | -2.03 kcal/mol | -0.10 kcal/mol | 0.16 kcal/mol | 0.31 | 0.04 | 1.80 kcal/mol | 0.66 kcal/mol | 0.00 kcal/mol | 0.00 kcal/mol | 2.06 kcal/mol | 2.93 | 1.96 kcal/mol | 1.69 kcal/mol | 0.27 kcal/mol | 0.60 kcal/mol | 0.00 kcal/mol | 2.56 kcal/mol | 1.96 kcal/mol | FML error [14]: 0.50 kcal/mol; CHEX Arrow MD Error [17]: 0.23 kcal/mol; CHEX Arrow PIMD4 Error [17]: 0.05 kcal/mol; CHEX Exp (solvation) [4, 24]: -2.03 kcal/mol; logD Arrow MD Error [8]: 0.31; logD Arrow PIMD Error [8]: 0.04; water Arrow MD Error [10, 25]: 0.66 kcal/mol; water Arrow PIMD8 Error [10, 26]: 0.00 kcal/mol; logD Exp (logD) [12]: 2.93; water Exp (hydration) [13, 27]: 1.96 kcal/mol
O [Water] | 2.29 kcal/mol | 2.53 kcal/mol | -0.39 kcal/mol | -4.70 kcal/mol | 1.70 kcal/mol | 0.31 | 0.17 | -8.00 kcal/mol | 0.51 kcal/mol | 0.17 kcal/mol | 0.17 kcal/mol | 1.60 kcal/mol | −4.33 | -6.30 kcal/mol | -5.86 kcal/mol | 0.44 kcal/mol | 0.26 kcal/mol | 0.17 kcal/mol | -6.04 kcal/mol | -6.30 kcal/mol | agreement of predicted bulk properties with experimental values ([3]; density, heat of vaporization, self-solvation, PIMD8): ≤ 3%; Density [5]: 0.997 g/cc; Hvap [5]: 10.51 kcal/mol; self-solvation [5]: -6.30 kcal/mol; Hydration [13]: -6.30 kcal/mol
